This test has as its target T1, large-conductance calcium-activated potassium (BK) channel (Rattus norvegicus, UniProt Q62976).
T1 construct: gene Kcnma1; native BK channels in freshly isolated rat coronary arterial smooth muscle cells (inside-out patches)
Nature of the test: inside-out single-channel patch clamp (open probability at +[…] mV). It is filed as cell-based. Background: The patch-clamp technique gives a direct electrical read-out from membranes.

T1 sequence (Q62976 whole entry): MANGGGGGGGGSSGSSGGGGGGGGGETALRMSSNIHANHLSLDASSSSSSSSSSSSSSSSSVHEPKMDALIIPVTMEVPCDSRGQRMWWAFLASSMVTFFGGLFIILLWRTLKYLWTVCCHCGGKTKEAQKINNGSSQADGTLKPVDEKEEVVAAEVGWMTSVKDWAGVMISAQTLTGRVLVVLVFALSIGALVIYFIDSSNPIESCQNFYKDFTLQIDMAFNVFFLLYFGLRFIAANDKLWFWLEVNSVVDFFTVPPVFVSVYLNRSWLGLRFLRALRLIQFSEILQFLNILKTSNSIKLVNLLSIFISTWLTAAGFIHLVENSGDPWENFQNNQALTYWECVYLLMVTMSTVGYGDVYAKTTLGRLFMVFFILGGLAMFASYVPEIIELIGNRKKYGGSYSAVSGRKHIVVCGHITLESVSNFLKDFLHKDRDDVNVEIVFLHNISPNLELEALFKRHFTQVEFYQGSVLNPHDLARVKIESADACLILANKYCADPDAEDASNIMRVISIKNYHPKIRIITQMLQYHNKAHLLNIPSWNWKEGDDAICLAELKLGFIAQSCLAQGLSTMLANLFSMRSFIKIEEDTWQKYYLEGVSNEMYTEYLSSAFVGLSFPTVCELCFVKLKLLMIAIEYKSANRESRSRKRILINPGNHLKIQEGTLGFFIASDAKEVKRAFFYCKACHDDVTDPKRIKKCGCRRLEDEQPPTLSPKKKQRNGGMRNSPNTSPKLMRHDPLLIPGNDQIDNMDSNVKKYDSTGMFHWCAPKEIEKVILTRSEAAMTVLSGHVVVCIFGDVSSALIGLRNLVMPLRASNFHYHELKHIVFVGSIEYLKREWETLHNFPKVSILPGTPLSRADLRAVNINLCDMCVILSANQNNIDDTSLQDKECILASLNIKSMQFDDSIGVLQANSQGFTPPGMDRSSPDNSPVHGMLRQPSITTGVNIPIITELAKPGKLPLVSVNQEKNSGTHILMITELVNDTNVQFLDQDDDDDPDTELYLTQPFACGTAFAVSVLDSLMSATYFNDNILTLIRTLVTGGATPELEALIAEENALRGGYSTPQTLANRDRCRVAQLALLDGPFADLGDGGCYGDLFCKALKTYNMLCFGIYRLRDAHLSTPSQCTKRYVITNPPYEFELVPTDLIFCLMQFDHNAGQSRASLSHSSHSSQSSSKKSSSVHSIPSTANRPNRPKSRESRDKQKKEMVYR

In the case of `CC/C=C\C/C=C\C/C=C\C/C=C\C/C=C\C/C=C\CCC(=O)O` [Docosahexaenoic acid], the EC50 (commonly the midpoint of the concentration-response curve) turned out to be 3.37 ± 0.1 µM.
